Assay [1] relates to male albino rats (Sprague Dawley) with paw incision. The assay can be described thus: Paw incision model for postoperative pain (electronic von Frey, tactile withdrawal threshold). It counts as in vivo, rat. The text has this: Post operative, incisional pain is a common form of persistent, acute pain. Brennan et al. (Brennan T J, Vandermeulen E P, and Gebhart G F. Characterization of a rat model of incisional pain. Pain 1996; 64:493-501) developed a post operative model in rats with surgical intervention on the plantar surface of the hind foot for the evaluation of novel analgesic therapeutics. A surgical incision of the rat foot causes a reliable and quantifiable tactile hypersensitivity during the initial post operative period and lasting for several days after surgery. This model may thus be useful for predicting analgesia by investigational agents for post operative pain.
The experiments were carried out in male albino rats (Sprague Dawley) with 170 g-230 g body weight from a commercial breeder (Charles River, Germany). Surgery was performed as previously described. Brennan et al. (Brennan T J, Vandermeulen E P, and Gebhart G F. Characterization of a rat model of incisional pain. Pain 1996; 64:493-501). Briefly, rats were anaesthetised with isoflurane, and a 1 cm longitudinal incision was made, through skin and fascia of the plantar aspect of the foot, starting from the proximal edge of the heel and extending toward the metatarsal toes. The plantaris muscle was elevated and incised longitudinally. The muscle origin and insertion remained intact. After spreading of the muscle and haemostasis with gentle pressure, the skin was closed with two single interrupted sutures. After surgery, the rats were allowed to recover in their home cages and the animals regained consciousness within 2 to 5 minutes. In order to ensure a complete recovery from anaesthesia the baseline value of each individual animal was recorded not until 2 hours after surgery.
The rats were placed in a plastic cage with a wire mesh bottom which allowed full access to the paws. Hind paw withdrawal threshold after mechanical stimulation was tested with electronic von Frey hairs (Somedic Sales AB, Hörby, Sweden). Ten rats were used per experimental group. Animals were placed in a plastic cage with a wire mesh bottom which allowed full access to the paws. Behavioral accommodation was allowed for 30 min. In each case, withdrawal response was measured at an area adjacent to the wound (ipsilateral) and to the same area on the non-injured foot (contralateral). Two hours after surgery, primary hypersensitivity was tested as tactile withdrawal threshold (tactile hyperalgesia) shortly before drug administration and at different time points after drug application. Animals injected with vehicle served as controls. The pretest measurement was made prior to surgery and two thresholds were taken per test and averaged. Ten rats were used per experimental group. Tactile withdrawal threshold was measured pre and after substance administration from day 1 to day 5 post surgery. From day 6 to day 13 post surgery the withdrawal threshold was measured without substance administration (wash out phase). The efficacy was expressed as MPE %=% of maximal possible effect, whereas MPE is defined as 100% reversal of tactile hyperalgesia compared to vehicle group.
Tapentadol at the dose of 14.7 mg/kg intraperitoneal route (i.p.) was adminstered twice daily (BID) (7 a.m./7 p.m.) throughout day 1 to day 5. The first administration was given 20 min before surgery on day 1. From day 6 to day 13 no substance was given (wash out phase) The study scheme is schematically illustrated in FIG. 1.

In a further assay the test system is CCI-SN rats. Format: in vivo, rat. As to the method: Male Sprague-Dawley rats (Charles River Laboratories, L'Arbresle, France), weighing 150-200 g on arrival, were used. Animals were maintained under controlled environmental conditions (22±1° C., 60% relative humidity, 12 h/12 h light/dark cycle, food and water ad libitum) starting from reception in the laboratory, for at least 1 week before any intervention or treatment and thereafter, until euthanasia.
Rats were anaesthetized as above and the common sciatic nerve was exposed. Using a dissection microscope (2× magnification), four chromic catgut (5-0) ligations were tied loosely with about 1 mm spacing, proximally to the sciatic trifurcation (Bennett and Xie, 1988). Finally, the skin and muscle were sewed using silk sutures (4-0). In sham-operated animals, the same surgery was performed, but the nerve was not ligated.
Tapentadol (1, 3 and 10 mg/kg i.p.), reboxetine (10 mg/kg i.p.), morphine (1 and 3 mg/kg s.c.) or their vehicle (0.9% NaCl) were injected acutely 14 days after surgery, when allodynia/hyperalgesia reached a plateau in both CCI-SN and CCI-ION rats. Behavioral tests were performed at various times for up to 4 h after injection. In drug association procedure, reboxetine or saline was administered 15 min before morphine or saline.
Subchronic treatment consisted of twice daily injections of tapentadol (10 mg/kg, i.p. at 10:00 am and 6:00 pm) or saline for 4 days starting on the 15th day after nerve ligation in both CCI-ION and CCI-SN rats. Animals were further injected with tapentadol (10 mg/kg i.p.) or saline at 10:00 am the following day (19th day post-surgery), and assessment of allodynia with von Frey filament tests (see below) was made at various times up to 4 hours after this injection. All rats were killed by decapitation 4 hours after the last injection for real-time qRT-PCR determinations of specific mRNAs in ganglia and central tissues (see below).
Before testing, each rat was habituated for 2 h as above, and mechanical sensitivity was then determined with a graded series of […] von Frey filaments, that produced a bending force of 6, 8, 10, 12, 15, 26, and 60 g, respectively. The stimuli were applied within the SN territory (lateral part of the hind paw sole). Each filament was tested three times on the nerve-injured side in increasing order starting with the filament producing the lowest force. As for the CCI-ION rats, the von Frey filaments were applied at least 3 seconds after the rat had returned to its initial resting state. The minimal force filament for which animals presented either a brisk paw withdrawal and/or an escape attempt in response to at least 2 out of the 3 stimulations allowed determination of the mechanical response threshold. The 60.00 g filament was chosen as the cutoff threshold to inhibit any tissue injury.
A—Two weeks after unilateral chronic constriction injury to the sciatic nerve, pressure threshold values (as g) to trigger nocifensive responses to von Frey filaments application onto the plantar surface of ipsilateral hindpaw were determined at various times after acute injection of tapentadol (1, 3 or 10 mg/kg, i.p.) or saline. B—On day 15 (D on abscissa) after nerve ligation, rats were treated subchronically with tapentadol (10 mg/kg, i.p., twice daily, at 10:00 AM and 6:00 PM) or saline for four days. On the following day (day 19 after surgery), both tapentadol- and saline-pretreated CCI-SN rats were injected with tapentadol (10 mg/kg, i.p.; 0 on abscissa) and then subjected to von Frey filaments' test applied to ipsilateral hindpaw for determination of pressure threshold values (as g) at various times thereafter.

The structures appear in SMILES notation. Values joined by “and” are separate entries in the source; they are usually repeats but may differ in a detail not shown here. Identical values can stand only once. Like-named read-outs stand apart in the source and are kept apart here.

As to `CC[C@@H](c1cccc(O)c1)[C@@H](C)CN(C)C` [Tapentadol, (−)-(1R,2R)-3-(3-dimethylamino-1-ethyl-2-methyl-propyl)-phenol], the “effect on sustained tactile hyperalgesia following surgical lesion” value in assay [1] (14.7 mg/kg i.p. BID day 1-5, washout day 6-13) was “outlasts treatment duration”. Also, the “MPE % (reversal of tactile hyperalgesia)” value in assay [1] (14.7 mg/kg i.p. BID day 1-5, d 2_0.5 h (0.5 h after treatment on day 2 after surgery)) was 38.3±5.48% and 38.3 ± 4.58 %; in assay [1] (14.7 mg/kg i.p. BID, d 3-0.5 h) it was 36.8 ± 2.41 %; in assay [1] (14.7 mg/kg i.p. BID, d 4-0.5 h) it was 34.5 ± 3.27 %; in assay [1] (14.7 mg/kg i.p. BID, d 5-0.5 h (last day of treatment)), 22.8 ± 5.29 %; in assay [1] (14.7 mg/kg i.p. BID, d 5-0.5 h (last day of treatment), listed as tapentadol), 22.8±5.29%; in assay [1] (14.7 mg/kg i.p. BID, pre-d 3 (before administration, day 3)), −0.6 ± 2.21 n.s. %. Further, the “MPE % (reversal of tactile hyperalgesia)” value is recorded as −6.00 ± 1.63 % in assay [1] (14.7 mg/kg i.p. BID, pre-d 4); −6.60 ± 1.67 % in assay [1] (14.7 mg/kg i.p. BID, pre-d 5); 2.60 ± 2.51 n.s. % in assay [1] (pre-d 8, washout phase (third day of washout) after 14.7 mg/kg i.p. BID day 1-5); 3% in assay [1] (pre-d 8, washout phase (third day of washout) after 14.7 mg/kg i.p. BID day 1-5, listed as tapentadol); 11.4 ± 3.21 % in assay [1] (pre-d 10, washout phase after 14.7 mg/kg i.p. BID day 1-5); 8.90 ± 2.59 % in assay [1] (pre-d 11, washout phase after 14.7 mg/kg i.p. BID day 1-5). The “MPE % (reversal of tactile hyperalgesia)” value in assay [1] (pre_d 9, washout phase after 14.7 mg/kg i.p. BID day 1-5) came out at 17.2 ± 3.43 %; in assay [1] (pre_d 9, washout phase after 14.7 mg/kg i.p. BID day 1-5, listed as tapentadol), 17%; in assay [1] (pre_d 12, washout phase (7 days of washout) after 14.7 mg/kg i.p. BID day 1-5), 8.60 ± 3.94 %; in assay [1] (pre_d 12, washout phase (7 days of washout) after 14.7 mg/kg i.p. BID day 1-5, listed as tapentadol), 9%. For the same compound, the entries for the “remaining efficacy as % of the efficacy after substance treatment on day 5” value in assay [1] (after 7 days of washout) and in assay [1] (day 9 (washout)) were 39% and 74%, respectively. Moreover, the “anti-allodynic effect after subchronic pretreatment vs saline pretreatment” value in the assay with CCI-SN rats (10 mg/kg i.p. twice daily for four days, challenge 10 mg/kg i.p. day 19) is given as “produced the same anti-allodynic effects”. Further, in the assay with CCI-SN rats (acute 1 mg/kg i.p., first 15-30 min after injection, non significant), the “increase in pressure threshold value” was “approximately 40%”. For the same compound, the “pressure threshold values (anti-allodynic effect)” value is on record as “also increased pressure threshold values, but to a lower extent than 10 mg/kg i.p” in the assay on CCI-SN rats (acute 3 mg/kg i.p.) and “no longer differed from healthy control values” with CCI-SN rats (acute 10 mg/kg i.p., 15-30 min after administration). For the same compound, the mechanical allodynia entry in the assay on CCI-SN rats (acute 10 mg/kg i.p., 90 min after injection) is given as “mechanical allodynia did not significantly differ from that measured in saline-treated CCI-SN rats”.

The values above are taken from US10813891B2, “Method of inhibiting chronification of pain” (priority 2011, dated 2020).
